Test results published in PMC6118387, “In silico drug absorption tract: An agent-based biomimetic model for human oral drug absorption” (PLoS ONE, 2018).
Where “and” joins values, the source holds several entries; their conditions need not be identical. Identical values can stand only once. Like-named read-outs stand apart in the source and are kept apart here.

Assays:
[1] = Clinical bioequivalence study: plasma concentrations (LC-MS-MS) and noncompartmental PK after oral tablet; assay type: in vivo, human; conditions: for Concentration, individual subjects / concentration at 0 h / concentration at 0.5 h / concentration at 1 h / concentration at 1.5 h / concentration at 2 h / concentration at 3 h / concentration at 4 h / concentration at 6 h / concentration at 8 h / concentration at 10 h / concentration at 12 h / concentration at 24 h / concentration at 48 h / concentration at 72 h / concentration at 96 h: clonazepam 2 mg oral; for concentration at 0 h / concentration at 0.5 h / concentration at 1 h / concentration at 1.5 h / concentration at 2 h / concentration at 3 h / concentration at 4 h / concentration at 6 h / concentration at 8 h / concentration at 10 h / concentration at 12 h / concentration at 24 h / concentration at 48 h / concentration at 72 h / concentration at 96 h: po
[2] = clonazepam, literature referent value, cited from earlier work
[3] = model drug parameter fixed to literature reported value, cited from earlier work
[4] = Referent clinical, clonazepam 2 mg tablet oral, N = 14, mean ±1 SD
[5] = human, plasma, 2 mg, plasma, MEAN column of the sheet with 15 subject columns, read-out: Concentration, MEAN of raw data sheet
[6] = human, plasma, 2 mg, plasma, mean ±1 SD N=14, read-out: Concentration, Referent
[7] = human, plasma, 2 mg, plasma, one value per subject (A1-A6, A8, B1-B8; B5 consumed alcohol), read-out: Concentration, individual subjects
[8] = human, plasma, Referent clinical, clonazepam 2 mg tablet oral, N = 14, mean ±1 SD

O=C1CN=C(c2ccccc2Cl)c2cc([N+](=O)[O-])ccc2N1 [Clonazepam, clonazepam]
CL/F [1, 4]: 3.88 ± 0.68 L/h
V/F [1, 4]: 186.84 ± 25.25 L
Concentration, individual subjects ([1]; plasma, 4 h, one value per subject (A1-A6, A8, B1-B8; B5 consumed alcohol)): 12.61 ng/mL and 14.34 ng/mL and 8.84 ng/mL and 12.65 ng/mL and 11.84 ng/mL and 14.63 ng/mL and 14.50 ng/mL and 12.96 ng/mL and 13.82 ng/mL and 11.06 ng/mL and 13.21 ng/mL and 17.02 ng/mL and 10.16 ng/mL and 10.55 ng/mL
Concentration, individual subjects ([1]; plasma, 6 h, one value per subject (A1-A6, A8, B1-B8; B5 consumed alcohol)): 10.50 ng/mL and 9.64 ng/mL and 15.51 ng/mL and 7.70 ng/mL and 10.12 ng/mL and 10.42 ng/mL and 11.00 ng/mL and 12.04 ng/mL and 12.42 ng/mL and 11.68 ng/mL and 12.48 ng/mL and 8.95 ng/mL and 12.72 ng/mL and 9.18 ng/mL and 8.60 ng/mL
Concentration, individual subjects ([1]; plasma, 8 h, one value per subject (A1-A6, A8, B1-B8; B5 consumed alcohol)): 8.58 ng/mL and 9.87 ng/mL and 7.12 ng/mL and 7.80 ng/mL and 8.38 ng/mL and 11.29 ng/mL and 11.40 ng/mL and 10.91 ng/mL and 10.98 ng/mL and 11.71 ng/mL and 8.16 ng/mL and 11.31 ng/mL and 8.88 ng/mL and 8.34 ng/mL
Concentration, individual subjects ([1]; plasma, 10 h, one value per subject (A1-A6, A8, B1-B8; B5 consumed alcohol)): 8.87 ng/mL and 11.42 ng/mL and 6.58 ng/mL and 7.89 ng/mL and 9.42 ng/mL and 8.97 ng/mL and 9.96 ng/mL and 11.87 ng/mL and 8.66 ng/mL and 9.83 ng/mL and 8.47 ng/mL and 9.69 ng/mL and 7.40 ng/mL and 7.44 ng/mL
Concentration, individual subjects ([1]; plasma, 12 h, one value per subject (A1-A6, A8, B1-B8; B5 consumed alcohol)): 8.09 ng/mL and 8.83 ng/mL and 6.28 ng/mL and 6.29 ng/mL and 8.86 ng/mL and 7.97 ng/mL and 9.45 ng/mL and 11.04 ng/mL and 8.02 ng/mL and 9.77 ng/mL and 7.69 ng/mL and 8.43 ng/mL and 7.52 ng/mL and 6.76 ng/mL
Concentration, individual subjects ([1]; plasma, 24 h, one value per subject (A1-A6, A8, B1-B8; B5 consumed alcohol)): 7.01 ng/mL and 7.87 ng/mL and 5.83 ng/mL and 6.96 ng/mL and 7.45 ng/mL and 7.77 ng/mL and 8.74 ng/mL and 8.99 ng/mL and 7.52 ng/mL and 8.66 ng/mL and 7.57 ng/mL and 8.32 ng/mL and 5.43 ng/mL and 6.77 ng/mL
Concentration, individual subjects ([1]; plasma, 48 h, one value per subject (A1-A6, A8, B1-B8; B5 consumed alcohol)): 4.72 ng/mL and 5.20 ng/mL and 6.30 ng/mL and 3.61 ng/mL and 5.16 ng/mL and 4.16 ng/mL and 6.22 ng/mL and 4.74 ng/mL and 6.11 ng/mL and 5.31 ng/mL and 5.10 ng/mL and 5.12 ng/mL and 5.25 ng/mL and 4.06 ng/mL and 3.12 ng/mL
Cmax ([1]; human, plasma, oral, 2 mg, clonazepam, peak of the mean clinical concentration-time profile over 96 hours): 13.5 ng/mL
concentration at 0 h [1, 5]: 0 ng/mL
concentration at 0 h [1, 6]: 0 ng/mL
concentration at 0 h [1, 7]: 0 ng/mL
concentration at 0.5 h [1, 5]: 6.65 ng/mL
concentration at 0.5 h [1, 6]: 7.13 ± 7.06 ng/mL
concentration at 1 h [1, 5]: 13 ng/mL
concentration at 1 h [1, 6]: 13.4 ± 5.29 ng/mL
concentration at 1.5 h [1, 5]: 13.5 ng/mL
concentration at 1.5 h [1, 6]: 13.9 ± 3.71 ng/mL
concentration at 2 h [1, 5]: 13.1 ng/mL
concentration at 2 h [1, 6]: 13.3 ± 2.82 ng/mL
concentration at 2 h [1, 7]: 13.7 ng/mL
concentration at 3 h [1, 5]: 12.7 ng/mL
concentration at 3 h [1, 6]: 12.9 ± 2.36 ng/mL
concentration at 3 h [1, 7]: 12.5 ng/mL
concentration at 4 h ([1]; human, plasma, 2 mg, plasma, 4 h, MEAN column of the sheet with 15 subject columns, read-out: Concentration, MEAN of raw data sheet): 12.7 ng/mL
concentration at 4 h ([1]; human, plasma, 2 mg, plasma, 4 h, mean ±1 SD N=14, read-out: Concentration, Referent): 13 ± 1.82 ng/mL
concentration at 4 h ([1]; human, plasma, 2 mg, plasma, 4 h, one value per subject (A1-A6, A8, B1-B8; B5 consumed alcohol), read-out: Concentration, individual subjects): 12.7 ng/mL
concentration at 6 h ([1]; human, plasma, 2 mg, plasma, 6 h, MEAN column of the sheet with 15 subject columns, read-out: Concentration, MEAN of raw data sheet): 10.9 ng/mL
concentration at 6 h ([1]; human, plasma, 2 mg, plasma, 6 h, mean ±1 SD N=14, read-out: Concentration, Referent): 11.1 ± 1.87 ng/mL
concentration at 8 h ([1]; human, plasma, 2 mg, plasma, 8 h, MEAN column of the sheet with 15 subject columns, read-out: Concentration, MEAN of raw data sheet): 9.62 ng/mL
concentration at 8 h ([1]; human, plasma, 2 mg, plasma, 8 h, mean ±1 SD N=14, read-out: Concentration, Referent): 9.8 ± 1.43 ng/mL
concentration at 8 h ([1]; human, plasma, 2 mg, plasma, 8 h, one value per subject (A1-A6, A8, B1-B8; B5 consumed alcohol), read-out: Concentration, individual subjects): 9.63 ng/mL
concentration at 10 h ([1]; human, plasma, 2 mg, plasma, 10 h, MEAN column of the sheet with 15 subject columns, read-out: Concentration, MEAN of raw data sheet): 9.05 ng/mL
concentration at 10 h ([1]; human, plasma, 2 mg, plasma, 10 h, mean ±1 SD N=14, read-out: Concentration, Referent): 9.23 ± 1.31 ng/mL
concentration at 10 h ([1]; human, plasma, 2 mg, plasma, 10 h, one value per subject (A1-A6, A8, B1-B8; B5 consumed alcohol), read-out: Concentration, individual subjects): 9.31 ng/mL
concentration at 12 h ([1]; human, plasma, 2 mg, plasma, 12 h, MEAN column of the sheet with 15 subject columns, read-out: Concentration, MEAN of raw data sheet): 8.25 ng/mL
concentration at 12 h ([1]; human, plasma, 2 mg, plasma, 12 h, mean ±1 SD N=14, read-out: Concentration, Referent): 8.39 ± 1.22 ng/mL
concentration at 12 h ([1]; human, plasma, 2 mg, plasma, 12 h, one value per subject (A1-A6, A8, B1-B8; B5 consumed alcohol), read-out: Concentration, individual subjects): 8.78 ng/mL
concentration at 24 h ([1]; human, plasma, 2 mg, plasma, 24 h, MEAN column of the sheet with 15 subject columns, read-out: Concentration, MEAN of raw data sheet): 7.53 ng/mL
concentration at 24 h ([1]; human, plasma, 2 mg, plasma, 24 h, mean ±1 SD N=14, read-out: Concentration, Referent): 7.65 ± 0.93 ng/mL
concentration at 24 h ([1]; human, plasma, 2 mg, plasma, 24 h, one value per subject (A1-A6, A8, B1-B8; B5 consumed alcohol), read-out: Concentration, individual subjects): 8.02 ng/mL
concentration at 48 h ([1]; human, plasma, 2 mg, plasma, 48 h, MEAN column of the sheet with 15 subject columns, read-out: Concentration, MEAN of raw data sheet): 4.95 ng/mL
concentration at 48 h ([1]; human, plasma, 2 mg, plasma, 48 h, mean ±1 SD N=14, read-out: Concentration, Referent): 5.04 ± 0.87 ng/mL
concentration at 72 h [1, 5]: 3.13 ng/mL
concentration at 72 h [1, 6]: 3.22 ± 0.71 ng/mL
concentration at 96 h [1, 5]: 1.89 ng/mL
concentration at 96 h [1, 6]: 1.95 ± 0.58 ng/mL
AUC [1, 8]: 529 ± 80.8 ng·h/mL
Cmax [1, 8]: 16.2 ± 4.28 ng/mL
half-life [1, 8]: 49 ± 7.79 h
k el [1, 8]: 5.83e-06 s⁻¹
Tmax ([1]; human, plasma, Referent clinical, clonazepam 2 mg tablet oral, N = 14, median, read-out: Tmax): 1.5 h
F (absolute oral bioavailability) [2]: ≥ 90%
Fa × Fg [2]: 93–95%
Fh [2]: 95–97%
Fa × Fg ([2]; listed as clonazepam): 93–95%
Fh ([2]; listed as clonazepam): 95–97%
Pka, In silico acid/base equilibrium constant ([3]; first printed value): 1.86
Pka, In silico acid/base equilibrium constant ([3]; second printed value): 11.89
